Earlier results as cited in patent US20240207454A1, “NEURO-BEHAVIORAL ASSAY FOR PHYSIOLOGICAL EVALUATION OF WATER-SOLUBLE ANESTHETICS” (Northeastern University, priority 2022, published 2024).
Read-outs that look alike come from different tables or passages of the source.

Columns and labels:
red garra (Garra rufa) = conditions: G. rufa, cited from earlier work
[1] = target: T1, GABAA receptor subtype α1β2γ2 (Homo sapiens, UniProt P14867+P18507+P47870); conditions: human embryonic kidney 293 cells expressing α1β2γ2; cited from earlier work
T1 construct: host or cells: human embryonic kidney 293 cells (heterologous expression)
T1 sequence (P14867 28-456): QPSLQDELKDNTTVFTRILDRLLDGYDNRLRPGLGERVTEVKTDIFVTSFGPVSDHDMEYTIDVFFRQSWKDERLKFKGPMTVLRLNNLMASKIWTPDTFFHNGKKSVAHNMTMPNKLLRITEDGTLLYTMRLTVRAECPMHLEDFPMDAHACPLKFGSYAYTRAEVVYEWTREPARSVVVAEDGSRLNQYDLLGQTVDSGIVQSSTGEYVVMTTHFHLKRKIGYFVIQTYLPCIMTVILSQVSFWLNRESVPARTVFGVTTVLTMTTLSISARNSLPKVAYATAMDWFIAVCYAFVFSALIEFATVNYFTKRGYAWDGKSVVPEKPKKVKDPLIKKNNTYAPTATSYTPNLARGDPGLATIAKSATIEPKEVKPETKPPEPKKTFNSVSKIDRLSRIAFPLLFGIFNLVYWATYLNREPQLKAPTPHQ
T1 sequence (P47870 25-512 limits assumed): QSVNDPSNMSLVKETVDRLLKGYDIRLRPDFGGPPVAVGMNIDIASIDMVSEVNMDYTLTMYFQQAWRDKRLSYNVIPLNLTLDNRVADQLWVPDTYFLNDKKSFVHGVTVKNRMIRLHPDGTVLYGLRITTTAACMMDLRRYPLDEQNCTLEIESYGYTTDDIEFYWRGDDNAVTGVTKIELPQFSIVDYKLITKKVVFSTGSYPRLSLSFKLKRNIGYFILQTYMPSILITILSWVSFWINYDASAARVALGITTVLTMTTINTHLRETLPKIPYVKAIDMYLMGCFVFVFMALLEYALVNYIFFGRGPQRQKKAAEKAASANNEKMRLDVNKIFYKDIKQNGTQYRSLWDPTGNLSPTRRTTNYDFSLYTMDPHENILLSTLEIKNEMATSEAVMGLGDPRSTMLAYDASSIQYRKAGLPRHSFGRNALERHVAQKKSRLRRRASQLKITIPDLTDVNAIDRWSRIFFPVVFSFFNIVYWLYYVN
T1 sequence (P18507 40-475): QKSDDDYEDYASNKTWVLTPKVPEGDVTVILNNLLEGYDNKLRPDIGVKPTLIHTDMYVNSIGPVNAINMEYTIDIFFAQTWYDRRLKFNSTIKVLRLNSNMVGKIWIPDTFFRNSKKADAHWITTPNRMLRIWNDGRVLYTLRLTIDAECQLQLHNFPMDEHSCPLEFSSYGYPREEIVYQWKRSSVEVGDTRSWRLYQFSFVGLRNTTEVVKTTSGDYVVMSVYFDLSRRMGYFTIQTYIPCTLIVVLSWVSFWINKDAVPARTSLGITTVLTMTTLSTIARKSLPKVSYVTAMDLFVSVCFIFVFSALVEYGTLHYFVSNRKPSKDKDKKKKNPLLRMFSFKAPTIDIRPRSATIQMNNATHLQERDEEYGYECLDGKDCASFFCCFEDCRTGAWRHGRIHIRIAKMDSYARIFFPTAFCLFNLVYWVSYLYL

## C=CCc1ccc(O)c(OC)c1 [eugenol]
Red garra (Garra rufa); 25 μL/L eugenol
  Time to total loss of equilibrium and movement and absence of reaction to external stimuli: approximately 3 min
Red garra (Garra rufa); 50 μL/L eugenol
  Time to total loss of equilibrium and movement and absence of reaction to external stimuli: ~1.5 min
[1]
  Effect on GABA-induced current: inhibits GABAA current in a reversible, dose-dependent manner
